Entries after “also recorded” stand apart in the source; their conditions may differ.
Key:
human erythrocytes = assay: Hemolytic activity in human erythrocytes; assay type: cell-based; settings: for hemolytic activity (in words): tested concentrations 100–0.78 µM
Method: The hemolytic activity of the compounds 4a–b was evaluated using an adaptation of the method described by Van de Ven (2012). Blood samples were adjusted to a 5% erythrocyte concentration, taking into account the hematocrit differences between males (40–50% ≈ 45%) and females (35–45% ≈ 40%). Compounds were added to 96-well plates at serial dilutions (100 to 0.78 µM), while AmB was tested at concentrations ranging from 400 to 3.12 µM as a reference. After 1 h of incubation at 37 °C in a 5% CO2 incubator, 100 µL of phosphate-buffered saline (PBS) was added to each well. Plates were centrifuged (112× g, 10 min, 25 °C), and supernatants were transferred to a mirrored 96-well plate. Hemoglobin release, reflecting erythrocyte lysis, was quantified by measuring absorbance at 540 nm. The assay was performed in three independent experiments, with results expressed as mean hemolytic concentration (HC50). Ultrapure water (Direct-Q UV, Guyancourt, France) served as the positive control (100% hemolysis).

[1] = test system: L. infantum axenic amastigotes; assay: Synergistic activity of 4b with AmB (Chou-Talalay) against axenic amastigotes; assay type: cell-based, Leishmania infantum; settings: of each drug within the 1:5 AmB:4b combination
Method: The nature of the drug interaction (synergistic, additive, or antagonistic) was evaluated using the Chou–Talalay method implemented in CompuSyn software (ComboSyn Incorporated, version 1.0.1, 2006–2023). This approach calculates the Combination Index (CI) based on dose–response data fitted to the median-effect equation, with parameters including Dm (median-effect dose), m (slope of the dose–effect curve), and r (linear correlation coefficient). To characterize the interaction at different effect levels, CI values were determined for the following effective doses: ED50, ED75, and ED90, corresponding to 50%, 75%, and 90% inhibition of cell viability, respectively. Interactions were interpreted as synergistic when CI < 1, additive when CI = 1, and antagonistic when CI > 1. Additionally, the dose reduction index (DRI) was calculated to estimate the amount of dose reduction that could be achieved for each drug in combination while maintaining the same level of efficacy; […]

[2] = test system: L. infantum promastigotes; assay: In vitro leishmanicidal activity (MTT) in promastigote forms; assay type: cell-based, Leishmania infantum; settings: for IC50: 72 h treatment, MTT
Method: (§1) Promastigote forms of L. infantum [IOC/L0579 (MHOM/BR/1974/PP75)] were cultured in Schneider’s medium (pH 7.0), supplemented with 20% fetal bovine serum (FBS), 1% human male urine, and 1% antibiotic solution (penicillin 200 U/mL and streptomycin 0.1 mg/mL), and maintained at 26 ± 1 °C (B.O.D SL 200—SOLAB, Piracicaba, SP, BR). The generation of extracellular axenic amastigote forms of L. infantum was based on protocols previously described by Debrabant et al. (2004), with modifications that included the use of Schneider’s medium adjusted to pH 5.5 and incubation at 37 °C (CO2 Series 3517-2, Cornelius, OR, USA).
The antileishmanial activity of compounds against metacyclic promastigote populations was assessed using the MTT (ACROS, Livingston, NJ, USA) assay for cell viability analysis. During testing, L. infantum (IOC/L0579) cultures were maintained in vitro in supplemented Schneider’s (Sigma-Aldrich, St. Louis, MO, USA) medium (pH 7.0) at 26 ± 1 °C in a biological oxygen demand (BOD) incubator.
(§2) In 96-well plates, initial screening was performed with serial dilutions (400 to 3.12 μM) of compounds 3a–c and 4a–c in duplicate. […] AmB was used as a positive control due to its established leishmanicidal activity, tested at concentrations ranging from 10 to 0.078 μM. Following 72 h-treatment of promastigotes and 24 h-treatment of amastigotes (accounting for the stationary phase culture characteristics), MTT was added for 4 h, followed by overnight incubation with sodium dodecyl sulfate (SDS) for spectrophotometric (Biotek model ELx800, Winooski, VT, USA) reading at 540 nm.

[3] = Cytotoxicity (MTT) in peripheral blood mononuclear cells; assay type: cell-based, human; settings: human, peripheral blood mononuclear cells (PBMCs), 24 h; for CC50 at 24 h: PBMCs, MTT; for viability at 24 h, 250 µM: at 250 μM; for viability at 24 h, 500 µM: at 500 μM
Method: (§3) For the PBMCs assay, blood samples from three healthy volunteers were processed using Ficoll density gradient centrifugation (980× g) for 20 min at 25 °C. The PBMCs layer was collected, washed with sterile 1× PBS (300× g, 10 min, 4 °C), and resuspended in RPMI medium (Sigma-Aldrich) supplemented with 10% FBS and 1% antibiotic. Adjusted PBMCs were plated in 96-well plates and incubated with serial dilutions of the compounds (1000 to 7.8 µM) and AmB (100 to 0.78 µM) for 24 h (37 °C, 5% CO2). MTT was then added for 4 h, followed by centrifugation (300× g, 10 min) at 4 °C, supernatant removal, and DMSO addition for spectrophotometric reading at 540 nm.

human PBMCs = assay: as above; assay type: cell-based
Method: as §3

[4] = test system: L. infantum axenic amastigotes; assay: In vitro leishmanicidal activity (MTT) in axenic amastigote forms; assay type: cell-based, Leishmania infantum; settings: for IC50: axenic amastigotes, 24 h treatment, MTT
Method: as §1, §2

[5] = at the highest concentration, 72 h
[6] = at the lowest doses / lower concentrations, 72 h

SMILES | dose reduction index (DRI) at IC50 [1] | IC50 ([2]; Leishmania infantum) [µM] | CC50 at 24 h [3] [µM] | IC50 ([4]; Leishmania infantum) [µM] | hemolytic activity (in words) (human erythrocytes) | promastigote viability [2, 5] [%] | promastigote viability [2, 6] [%] | viability at 24 h, 250 µM ([3]; read-out: PBMC viability) [%] | viability at 24 h, 500 µM ([3]; read-out: PBMC viability) [%] | other results
C[C@@H]1[C@H](O)[C@@H](C)/C=C/C=C/C=C/C=C/C=C/C=C/C=C/[C@H](O[C@@H]2O[C@H](C)[C@@H](O)[C@H](N)[C@@H]2O)C[C@@H]2O[C@](O)(C[C@@H](O)C[C@@H](O)[C@H](O)CC[C@@H](O)C[C@@H](O)CC(=O)O[C@H]1C)C[C@H](O)[C@H]2C(=O)O [AmB, Amphotericin B, reference compound] | 2.87 | 0.87 | 29.9 | 0.89 |  |  |  |  |  | 50% hemolytic concentration (HC50) (human erythrocytes; 5% erythrocytes, 1 h, 37 °C): 193.4 µM; viability at 24 h, 25 µM ([3]; at 25 μM, read-out: PBMC viability): 61.9%; viability at 24 h, 50 µM ([3]; at 50 μM, read-out: PBMC viability): 40.8%; viability at 24 h, 100 µM ([3]; at 100 μM, read-out: PBMC viability): 30.4%; CC50 (human PBMCs; PBMCs, 24 h, MTT): 29.9 µM
Cc1ccc(C(=O)/C=C/c2ccc(OCC(=O)NC3CCCCC3)cc2)cc1 [Compound 4a, (E)-N-Cyclohexyl-2-(4-(3-oxo-3-p-tolylprop-1-enyl)phenoxy)acetamide] |  | 12.9 | 157 | 19.7 | no hemolytic activity | 20.77 | 100 | 33 | 33.4 | viability at 24 h, 125 µM ([3]; at 125 μM, read-out: PBMC viability): 61.2%; viability at 12.5 µM ([4]; Leishmania infantum, at 12.5 µM, 24 h): 80.2%; viability at 25 µM ([4]; Leishmania infantum, at 25 µM, 24 h): 30.8%; viability at 50 µM ([4]; Leishmania infantum, at 50 µM, 24 h): 23.5%
COc1ccc(C(=O)/C=C/c2ccc(OCC(=O)NC3CCCCC3)cc2)cc1 [Compound 4b, (E)-N-Cyclohexyl-2-(4-(3-(4-methoxyphenyl)-3-oxoprop-1-enyl)phenoxy)acetamide] | 1.28 | 7.02 | 505 | 3.4 | no hemolytic activity |  |  | 65.1 | 55.2 | viability at 3.12 µM ([2]; Leishmania infantum, at 3.12 µM, 72 h): 79.3%; viability at 6.25 µM ([2]; Leishmania infantum, at 6.25 µM, 72 h): 34.2%; viability at 12.5 µM ([2]; Leishmania infantum, at 12.5 µM, 72 h): 24.3%; viability at 24 h, 1000 µM ([3]; at 1000 μM, read-out: PBMC viability): 31.8%; PBMC cytotoxicity versus negative controls (in words) (human PBMCs; 25–100 μM): negligible cytotoxicity; viability at 1.56 µM ([4]; Leishmania infantum, at 1.56 µM, 24 h): 85.5%; viability at 3.12 µM ([4]; Leishmania infantum, at 3.12 µM, 24 h): 60.8%; viability at 6.25 µM ([4]; Leishmania infantum, at 6.25 µM, 24 h): 9.12%
O=C(COc1ccc(/C=C/C(=O)c2ccc(Br)cc2)cc1)NC1CCCCC1 [Compound 4c, (E)-2-(4-(3-(4-Bromophenyl)-3-oxoprop-1-enyl)phenoxy)-N-cyclohexylacetamide] |  | 45.8 |  |  |  | 21.93 | 100 |  |  | activity against amastigotes (in words) ([4]; 24 h): no detectable activity; also recorded: no inhibitory effect

From article PMC12649483, “Novel Chalcone Derivatives as Anti-Leishmania infantum Agents with Potential Synergistic Activity and In Silico Insights” (Antibiotics, 2025)
